Data as given in patent US10894808B2, “Polypeptide ligands specific for plasma kallikrein” (BicycleRD Limited, priority 2013, dated 2021).
*1 amine or outer side, *2 acyl side, *3 side chain or, on linkers, in order; H or OH if unused. Where a SMILES comes first, the peptide text is derived from it. Bridges are numbered along the chain shown (N, C = ends). [ ]: non-standard residue; d: D form. TBMB = c1c(C[*:1])cc(C[*:3])cc1C[*:2]; hArg = N=C(N)NCCCC[C@H](N)C(=O)O; Aze = O=C(O)[C@@H]1CCN1; Sar = CNCC(=O)O

Assays:
human plasma kallikrein = target: T1, human plasma kallikrein (Homo sapiens, UniProt P03952); assay: Functional enzyme assay, inhibition of human plasma kallikrein (Z-PheArg-AMC substrate); format: biochemical
T1 construct: purchased Stratech, UK
T1 sequence (P03952 391-638 limits assumed): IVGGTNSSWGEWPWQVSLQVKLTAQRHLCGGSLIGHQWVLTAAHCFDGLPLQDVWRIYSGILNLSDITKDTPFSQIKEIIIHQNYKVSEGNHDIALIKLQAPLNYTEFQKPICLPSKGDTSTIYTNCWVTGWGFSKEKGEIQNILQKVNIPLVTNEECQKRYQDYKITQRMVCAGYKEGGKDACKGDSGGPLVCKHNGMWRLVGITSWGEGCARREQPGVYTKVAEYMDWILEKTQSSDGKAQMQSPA
T1 sequence (P03952 20-390 partner limits assumed): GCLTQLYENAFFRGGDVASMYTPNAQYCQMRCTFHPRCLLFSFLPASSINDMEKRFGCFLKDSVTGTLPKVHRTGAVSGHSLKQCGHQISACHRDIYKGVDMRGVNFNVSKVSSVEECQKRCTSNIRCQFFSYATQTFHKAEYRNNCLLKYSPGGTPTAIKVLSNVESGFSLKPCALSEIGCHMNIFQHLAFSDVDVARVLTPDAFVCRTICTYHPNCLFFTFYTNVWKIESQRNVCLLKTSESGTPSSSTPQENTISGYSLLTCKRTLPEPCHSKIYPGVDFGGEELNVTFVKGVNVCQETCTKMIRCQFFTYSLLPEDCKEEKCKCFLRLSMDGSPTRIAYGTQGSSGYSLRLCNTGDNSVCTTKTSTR
Procedure, shortened: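 Buffer 10 mM Tris HCl, 150 mM NaCl, 10 mM MgCl2, 1 mM CaCl2, 1 mg/mL BSA, pH 7.4, 25° C. AMC release read at ex 360/em 460 nm; linear-phase rate (typically 5–45 min) fitted by four-parameter non-linear regression for IC50, with Ki also derived.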

[1] = Plasma stability profiling Method #2 (95% plasma, MALDI-TOF), rat plasma; format: in vitro ADME; details: qualitative, sampled up to 46 hrs
Protocol: (§1) To obtain stability data more rapidly, peptides were also assessed in 95% plasma. Here, PBS was omitted, and a 1-5 mM peptide stock (in DMSO) was directly diluted into plasma (i.e. 2.5 μL stock into 47.5 μL plasma), giving a final concentration of 50 μM. 5 μL samples were taken at appropriate time points and frozen at −80° C. For analysis, the samples were defrosted, mixed with 25 μL of 3:3:1 acetonitrile:methanol:water, and centrifuged at 13 k for 5 min. 5 μL of the peptide-containing supernatant was aspirated and mixed with 30 mM ammonium bicarbonate in a 1:1 mixture of acetonitrile:H2O. 1 μL of this was then spotted on the MALDI plate and analysed as described above. As above, it should be noted that this is a qualitative assay serves to detect relative changes in plasma stability.

[2] = Plasma stability profiling Method #2 (95% plasma, MALDI-TOF), human plasma; format: in vitro ADME; details: qualitative, sampled up to 46 hrs
Protocol: as §1

[3] = Intravenous pharmacokinetics in rat; format: in vivo; details: in vivo, Table 8, Sprague Dawley rat, iv 5 mg/kg
Protocol: Peptides used for the pharmacokinetic studies in Example 4 were lyophilised from 10 mM HCl in water 3 times to afford the hydrochloride salts of the compounds. Solutions were dosed by intravenous bolus at 1 mg/mL in 50 mM Hepes pH 7.0, 5% glycerol, 1.9% DMSO for two compounds (Ac-(06-550) Aze3 HArg5 Sar3-(D-Arg2)) and (06-259-02)-Sar3-(D-Arg2)) at 5 mg/kg in Spraguely Dawely rats. Serial blood samples (˜0.2 mL) were taken into EDTA tubes at the indicated time points, and plasma was separated by centrifugation, and frozen at −20 C for analysis. Employing standard bioanalytical techniques, plasma samples were then analysed and quantified for parent remaining compound using a Waters, Xevo TQS LC-MS. PK parameters were determined using the software package PK Solutions 2.0 from Summit Research Services.
Peptides Ac-(06-550)-Sar3-(D-Arg)2Aze3 HArg5 (which contains the stabilising and affinity enhancing modifications Aze3 and HArg5, and a solubilising C-terminal extension Sar3-(D-Arg)2) (SEQ ID NO: 98) and Ac-(06-259-02)-Sar3-(D-Arg)2 were selected for pharmacokinetic assessment in rat. Peptides were injected intravenously in buffered solution at 1 mg/mL at 5 mg/kg Sprague Dawley rats, and blood was sampled and analysed for peptide concentrations at a number of time points post injection.

[4] = Pharmacokinetics following intravitreal injection in rabbit; format: in vivo; details: vitreous humour; New Zealand White rabbit, intravitreal 100 μg/eye; read-out: elimination half-life from the vitreous humour
Protocol: In this analysis, peptide Ac-(06-550)-Sar3-(D-Arg)2 Aze3 HArg5 (referred to in this study as Bicycle 1 and which contains the stabilising and affinity enhancing modifications Aze3 and HArg5, and a solubilising C-terminal extension Sar3-(D-Arg)2 (SEQ ID NO: 98); see Examples 3 and 4 herein) was assessed comparatively against the peptide Ac-(06-34-18) Phe2 Aze3 Tyr4 HArg5 Ala(ψCH2NH)6 (referred to in this study as Bicycle 2 and which is disclosed in Table 26b and FIG. 22 of PCT/EP2014/057440). New Zealand White rabbits (2-3 kg) were anaesthetized and both peptides were administered by intravitreal injection (100 μg/eye) according to the protocol described in Table 9.
After an appropriate time, rabbits were euthanized and vitreous humour, aqueous humour, retina and plasma samples were taken. Samples were analysed by LC-MS to determine the concentration of the peptide. The results of this study are shown in FIG. 5 where it can be observed that both peptides were slowly cleared from the vitreous humour, with elimination half-lives of 20-30 h.

With `CC[C@H](C)[C@@H]1NC(=O)[C@H](CC(=O)O)NC(=O)[C@@H]2CCCN2C(=O)[C@H](Cc2ccc(O)cc2)NC(=O)[C@H](Cc2ccc(O)cc2)NC(=O)[C@H](C(C)C)NC(=O)[C@@H]2CSCc3cc(cc(c3)CSC[C@@H](C(=O)N[C@@H](C)C(=O)N(C)CC(=O)N(C)CC(=O)N(C)CC(=O)N[C@H](CCCNC(=N)N)C(=O)N[C@H](CCCNC(=N)N)C(N)=O)NC1=O)CSC[C@H](NC(C)=O)C(=O)N[C@@H](CO)C(=O)N[C@@H](Cc1ccccc1)C(=O)N1CC[C@H]1C(=O)N[C@@H](Cc1ccc(O)cc1)C(=O)N[C@@H](CCCCNC(=N)N)C(=O)N2` [Ac-(06-550)-Sar3-(DArg2) Aze3HArg5] (Ac-CSF[Aze]Y[hArg]CVYYPDICA[Sar][Sar][Sar][dR][dR]-NH2; linker 1-7-14 via TBMB; C-terminus assumed) the Ki (human plasma kallikrein) was 0.4 nM, the “comparative stability in rat plasma” value [1] was “high stability” and the “comparative stability in rat plasma” value ([1]; listed as 06-550 derivative) was “Little degradation is observed”. For the same compound, the “comparative stability in human plasma” value [2] was “high stability”, the “comparative stability in human plasma” value ([2]; listed as 06-550 derivative) was “Little degradation is observed” and the clearance [3] was 17 mL/min/kg. The Vd ([3]; read-out: Vss) was 0.4 L/kg, the half-life ([3]; read-out: t1/2 elimination) was 2.27 h and the half-life [4] was 20 to 30 h.
